From patent US8445207B2, “Genes based on thalidomide, valproic acid and methotrexate treatment for screening of drug inducing teratogenicity and screening method using thereof” (priority 2009, dated 2013)

Tested on: JEG-3 (human placental choriocarcinoma cell line)
Test: Oligo microarray gene expression in drug-treated JEG-3 (Cy5 treated / Cy3 control)
Type: cell-based
Conditions: treated at IC30, up-regulated gene
Procedure: Thalidomide, valproic acid, and methotrexate were treated to human placental choriocarcinoma cell line at the concentrations determined above (Inhibition concentration: the concentration that can kill approximately 30% of the total cells, that is the concentration of 70% viability, IC30). mRNA was extracted from the drug treated cell line, followed by synthesis of cDNA which was labeled with Cy5. The non-treated control was labeled with Cy3. The fluorescence labeled cDNA was hybridized with 41K (thalidomide), 44K (valproic acid, methotrexate) human whole genome oligomicroarray chips (Agilent, USA), followed by fluorescent image scanning to analyze gene expression patterns (see FIG. 4). Volcano Plot of each substance was also attached. Y axis indicates probability (generally converted by −log 10). X axis indicates differential expression, which is presented by log-ratio.
Total RNA was separated from the treated cell by using trizol reagent (Invitrogen Life Technologies, USA) according to the manufacture's instructions, followed by purification using RNeasy mini kit (Qiagen, USA). Genomic DNA was eliminated during RNA purification using RNase-free DNase set (Qiagen, USA).
30 μg of the total RNA obtained above and 2 μg (1 μg/μl) of oligo (dT) primer were mixed, followed by reaction at 65° C. for 10 minutes. Annealing was performed in ice right after the reaction. Reagents were prepared as shown in Table 1 for reverse transcription of the annealed RNA.
The total RNA separated from the control group JEG-3 cells was labeled with Cy3-dUTP (green) and the total RNA separated from the experiment group JEG-3 cells treated with thalidomide, valproic acid and methotrexate was labeled with Cy5-dUTP (red). At this time, the two samples were mixed and purified by Microcon YM-30 column (Millipore, USA).
Hybridization and washing were performed by the manufacturer's (GenoCheck, Korea) instructions. Particularly, hybridization was performed in a 62° C. oven for 12 hours. As a DNA microarray chip, 44 k whole human genome oligo microarray (Agilent, USA) was used. After washing (2 minutes with 2×SSC/0.1% SDS, three minutes with 1×SSC, 2 minutes with 0.2×SSC), the slide was dried by centrifugation at 800 rpm for 3 minutes.
Hybridization image on the slide was scanned with Genepix 4000B (Axon Instruments, USA). Fluorescence image of the chip on which non-hybridized genes had been washed out was obtained by using laser fluorescence scanner. Green fluorescence image indicates the activity of gene specifically expressed in the control group and red fluorescence image indicates the activity of gene specifically expressed in the experimental group. […] Scanned image was analyzed by using GenePix 4.1 software (Axon Instruments, USA) to calculate gene expression rate.

[1] = (j) Response to oxidative stress
[2] = (k) common gene which has no function

**Q.** CCCC(CCC)C(=O)O [VPA, valproic acid] was tested. Which “Ratio of intermediate value, gene GSTM3 (NM_000849, GLUTATHION E S-TRANSFERASE M3 (BRAIN))” value ((h) Nervous system development) did it give?
**A.** 3.69

**Q.** And the “Ratio of intermediate value, gene HEYL (NM_014571, HAIRY/ENHANCER-OF-SPLIT RELATED WITH YRPW MOTIF-LIKE)” value ((h) Nervous system development)?
**A.** 2.13

**Q.** And the “Ratio of intermediate value, gene IRS2 (NM_003749, INSULIN RECEPTOR SUBSTRATE 2)” value ((h) Nervous system development)?
**A.** 2.09

**Q.** And the “Ratio of intermediate value, gene KCNQ2 (NM_172109, POTASSIUM VOLTAGE-GATED CHANNEL, KQT-LIKE SUBFAMILY, MEMBER 2)” value ((h) Nervous system development)?
**A.** 4.41

**Q.** And the “Ratio of intermediate value, gene KDELC1 (NM_015831, ACETYLCHOLINESTERASE (YT BLOOD GROUP))” value ((h) Nervous system development)?
**A.** 2.47

**Q.** And the “Ratio of intermediate value, gene KIF5C (AB011103, KINESIN HEAVY CHAIN NEURON-SPECIFIC 2)” value ((h) Nervous system development)?
**A.** 11.94

**Q.** And the “Ratio of intermediate value, gene MAPT (NM_016835, MICROTUBULE-ASSOCIATED PROTEIN TAU)” value ((h) Nervous system development)?
**A.** 3.18

**Q.** And the “Ratio of intermediate value, gene MYLIP (NM_013262, MYOSIN REGULATORY LIGHT CHAIN INTERACTING PROTEIN)” value ((h) Nervous system development)?
**A.** 2.88

**Q.** And the “Ratio of intermediate value, gene NRXN3 (NM_004796, NEUREXIN 3)” value ((h) Nervous system development)?
**A.** 2.25

**Q.** What about the “Ratio of intermediate value, gene PPIL6 (NM_000115, ENDOTHELIN RECEPTOR TYPE B)” value ((h) Nervous system development) of the same compound?
**A.** 3.13

**Q.** And the “Ratio of intermediate value, gene PRPS1 (NM_002764, PHOSPHORIBOSYL PYROPHOSPHATE SYNTHETASE 1)” value ((h) Nervous system development)?
**A.** 2.12

**Q.** What about the “Ratio of intermediate value, gene SCG10; SGC10; SCGN10 (S82024, STATHMIN-LIKE 2)” value ((h) Nervous system development) of the same compound?
**A.** 2.41

**Q.** And the “Ratio of intermediate value, gene SDFR1 (NM_012428, NEURO-PLASTIN)” value ((h) Nervous system development)?
**A.** 2.26

**Q.** What about the “Ratio of intermediate value, gene SELM (BX537571, FYN ONCOGENE RELATED TO SRC, FGR, YES)” value ((h) Nervous system development) of the same compound?
**A.** 3.34

**Q.** What about the “Ratio of intermediate value, gene SEMA6C (NM_030913, SEMA DOMAIN, TRANSMEMBRANE DOMAIN (TM), AND CYTOPLASMIC DOMAIN, (SEMAPHORIN) 6C)” value ((h) Nervous system development) of the same compound?
**A.** 2.77

**Q.** What about the “Ratio of intermediate value, gene TUBB2 (NM_001069, TUBULIN, BETA 2A)” value ((h) Nervous system development) of the same compound?
**A.** 3.11

**Q.** And the “Ratio of intermediate value, gene TWSG1 (NM_020648, TWISTED GASTRULATION HOMOLOG 1 (DROSOPHILA))” value ((h) Nervous system development)?
**A.** 2.56

**Q.** What about the “Ratio of intermediate value, gene GCLM (CR598364, GLUTAMATE-CYSTEINE LIGASE, MODIFIER SUBUNIT)” value ((i) Neuron apoptosis) of the same compound?
**A.** 2.61

**Q.** What about the “Ratio of intermediate value, gene GTF2A1 (BC028148, TUMOR NECROSIS FACTOR (TNF SUPERFAMILY, MEMBER 2))” value ((i) Neuron apoptosis) of the same compound?
**A.** 2.15

**Q.** What about the “Ratio of intermediate value, gene HPCAL4 (BC028066)” value ((i) Neuron apoptosis) of the same compound?
**A.** 6.07

**Q.** What about the “Ratio of intermediate value, gene KRAS2 (BC029545, V-HA-RAS HARVEY RAT SARCOMA VIRAL ONCOGENE HOMOLOG)” value ((i) Neuron apoptosis) of the same compound?
**A.** 2.62

**Q.** What about the “Ratio of intermediate value, gene LIG4 (NM_002312, LIGASE IV, DNA, ATP-DEPENDENT)” value ((i) Neuron apoptosis) of the same compound?
**A.** 2.19

**Q.** And the “Ratio of intermediate value, gene DKFZp761B1514 (AK025742, UNCOUPLING PROTEIN 2 (MITOCHONDRIAL, PROTON CARRIER))” value [1]?
**A.** 2.39

**Q.** And the “Ratio of intermediate value, gene DYRK3 (BC030009, SELENOPROTEIN P, PLASMA, 1)” value [1]?
**A.** 5.57

**Q.** And the “Ratio of intermediate value, gene FTH1 (BC006523, SERUM/GLUCOCORTICOID REGULATED KINASE 2)” value [1]?
**A.** 2.13

**Q.** And the “Ratio of intermediate value, gene GPX3 (NM_002084, GLUTATHIONE PEROXIDASE 3 (PLASMA))” value [1]?
**A.** 2.10

**Q.** What about the “Ratio of intermediate value, gene HMOX1 (NM_002133, HEME OXYGENASE (DECYCLING) 1)” value [1] of the same compound?
**A.** 2.85

**Q.** And the “Ratio of intermediate value, gene MOSPD1 (H18681, SULFIREDOXIN 1 HOMOLOG (S. CEREVISIAE))” value [1]?
**A.** 3.56

**Q.** And the “Ratio of intermediate value, gene RPL4 (AK094940, GLUTAMATE-CYSTEINE LIGASE, CATALYTIC SUBUNIT)” value [1]?
**A.** 2.49

**Q.** And the “Ratio of intermediate value, gene TXNIP (NM_006472, THIOREDOXIN INTERACTING PROTEIN)” value [1]?
**A.** 4.52

**Q.** What about the “Ratio of intermediate value, gene ATP10B (AB018258, ATPase, Class V, type 10B)” value [2] of the same compound?
**A.** 2.03

**Q.** What about the “Ratio of intermediate value, gene BQ186674 (cDNA clone UI-E-EJ1-ajr-f-10-0-UI, Hypothetical gene supported by AF086204)” value [2] of the same compound?
**A.** 2.79

**Q.** And the “Ratio of intermediate value, gene BX111592 (Transcribed locus, moderately similar to XP_066443.6 PREDICTED: similar to paraneoplastic antigen like 6A)” value [2]?
**A.** 1.50

**Q.** What about the “Ratio of intermediate value, gene CGA (NM_000735, Glycoprotein hormones, alpha polypeptide)” value [2] of the same compound?
**A.** 2.14

**Q.** And the “Ratio of intermediate value, gene COBLL1 (BX649112, COBL-like 1)” value [2]?
**A.** 1.52

**Q.** What about the “Ratio of intermediate value, gene CYP19A1 (AK023571, Cytochrome P450, family 19, subfamily A, polypeptide 1)” value [2] of the same compound?
**A.** 1.78

**Q.** What about the “Ratio of intermediate value, gene FLJ11017 (AK001879, Hypothetical protein FLJ11017)” value [2] of the same compound?
**A.** 1.87

**Q.** What about the “Ratio of intermediate value, gene GLCCI1 (AK126731, Glucocorticoid induced transcript 1)” value [2] of the same compound?
**A.** 2.27

**Q.** And the “Ratio of intermediate value, gene KIAA0310 (AB002308, KIAA0310)” value [2]?
**A.** 1.59

**Q.** What about the “Ratio of intermediate value, gene MGC27016 (AK125877, Hypothetical protein MGC27016)” value [2] of the same compound?
**A.** 2.62

**Q.** What about the “Ratio of intermediate value, gene NCOA3 (NM_181659, Nuclear receptor coactivator 3)” value [2] of the same compound?
**A.** 1.62

**Q.** What about the “Ratio of intermediate value, gene RGS2 (BC042755, Regulator of G-protein signalling 2, 24 kDa)” value [2] of the same compound?
**A.** 3.04

**Q.** And the “Ratio of intermediate value, gene SIAT7A (BC063830, ST6 (alpha-N-acetyl-neuraminyl-2,3-beta-galactosyl-1,3)-N-acetylgalactosaminide alpha-2,6-sialyltransferase 1)” value [2]?
**A.** 1.69

**Q.** What about the “Ratio of intermediate value, gene SIAT8D (NM_005668, ST8 alpha-N-acetyl-neuraminide alpha-2,8-sialyltransferase 4)” value [2] of the same compound?
**A.** 1.79

**Q.** What about the “Ratio of intermediate value, gene SLC7A8 (Y18483, Solute carrier family 7 (cationic amino acid transporter, y+ system), member 8)” value [2] of the same compound?
**A.** 2.48

**Q.** What about the “Ratio of intermediate value, gene SLC40A1 (AK023574, Solute carrier family 40 (iron-regulated transporter), member 1)” value [2] of the same compound?
**A.** 1.70

**Q.** And the “Ratio of intermediate value, gene TFCP2L4 (BC036890, Grainyhead-like 3 (Drosophila))” value [2]?
**A.** 3.12

**Q.** What about the “Ratio of intermediate value, gene TTF2 (AB209845, Transcription termination factor, RNA polymerase II)” value [2] of the same compound?
**A.** 1.81

**Q.** And the “Ratio of intermediate value, gene TUBB3 (AK122757, Tubulin, beta 3)” value [2]?
**A.** 1.70

**Q.** And the “Ratio of intermediate value, gene TncRNA (AF001893, Trophoblast-derived noncoding RNA)” value [2]?
**A.** 3.61
